Measurements from ChEMBL document CHEMBL5257110, “Recent developments of imidazo[1,2-a]pyridine analogues as antituberculosis agents” (RSC Med Chem, 2023).
pIC50: −log10 of the molar value. In brackets after ≈: the same amount, converted by molar mass.

Key:
[1] = tested on: Mycobacterium tuberculosis; assay: Antimycobacterial activity against Mycobacterium tuberculosis H37Rv; type: functional
[2] = tested on: Mycobacterium tuberculosis; assay: Antimycobacterial activity against drug-sensitive Mycobacterium tuberculosis H37Rv; type: functional
[3] = tested on: Mycobacterium tuberculosis; assay: Antimycobacterial activity against Mycobacterium tuberculosis 7H12; type: functional
[4] = tested on: Mycolicibacterium smegmatis; assay: Antimycobacterial activity against Mycobacterium smegmatis; type: functional
[5] = Cytotoxicity against CHO-K1 cells; type: toxicity, cell-based, Cricetulus griseus; settings: Chinese hamster
[6] = tested on: Mycobacterium tuberculosis; assay: Antimycobacterial activity against Mycobacterium tuberculosis Erdman infected in BALB/c mouse model assessed as log reduction of bacterial load in lung at 200 mg/kg, po administered 5 days a week for 30 days untill day 58; type: functional; settings: time 58 day
[7] = Cytotoxicity against African green monkey Vero cells assessed as reduction in cell viability; type: toxicity, cell-based, Chlorocebus sabaeus; settings: for pIC50: African green monkey
[8] = Aqueous solubility of the compound; type: physicochemical; settings: aqueous medium
[9] = Microsomal stability in human liver microsomes assessed as half life; type: ADME, Microsome
[10] = tested on: Mycobacterium tuberculosis; assay: Antimycobacterial activity against replicating Mycobacterium tuberculosis H37Rv; type: functional
[11] = tested on: Mycobacterium tuberculosis; assay: Antibacterial activity against non-replicating Mycobacterium tuberculosis H37Rv-LUX assessed as inhibition of bacterial growth incubated for 9 days under anaerobic conditions followed by 28 hrs under aerobic conditions by LORA assay; type: functional; settings: time 244 hrs
[12] = tested on: Mycobacterium tuberculosis; assay: Antimycobacterial activity against MDR-Mycobacterium tuberculosis V2475; type: functional
[13] = Selectivity index, ratio of IC50 for cytotoxicity against African green monkey Vero cells to MIC90 for antimycobacterial activity against XDR-Mycobacterium tuberculosis R506; type: toxicity, cell-based; settings: read-out: Selectivity Index
[14] = tested on: Mycobacterium tuberculosis; assay: Antimycobacterial activity against XDR-Mycobacterium tuberculosis TF274; type: functional
[15] = Selectivity index, ratio of IC50 for cytotoxicity against African green monkey Vero cells to MIC90 for antimycobacterial activity against MDR-Mycobacterium tuberculosis V2475; type: toxicity, cell-based; settings: read-out: Selectivity Index
[16] = tested on: Mycobacterium tuberculosis; assay: Antimycobacterial activity against XDR-Mycobacterium tuberculosis R506; type: functional
[17] = Selectivity index, ratio of IC50 for cytotoxicity against African green monkey Vero cells to MIC90 for antimycobacterial activity against MDR-Mycobacterium tuberculosis KZN494; type: toxicity, cell-based; settings: read-out: Selectivity Index
[18] = tested on: Mycobacterium tuberculosis; assay: Antimycobacterial activity against drug-sensitive Mycobacterium tuberculosis V4207; type: functional
[19] = Selectivity index, ratio of IC50 for cytotoxicity against African green monkey Vero cells to MIC90 for antimycobacterial activity against drug-sensitive Mycobacterium tuberculosis H37Rv; type: toxicity, cell-based; settings: read-out: Selectivity Index
[20] = Selectivity index, ratio of IC50 for cytotoxicity against African green monkey Vero cells to MIC90 for antimycobacterial activity against drug-sensitive Mycobacterium tuberculosis V4207; type: toxicity, cell-based; settings: read-out: Selectivity Index
[21] = Selectivity index, ratio of IC50 for cytotoxicity against African green monkey Vero cells to MIC90 for antimycobacterial activity against XDR-Mycobacterium tuberculosis TF274; type: toxicity, cell-based; settings: read-out: Selectivity Index
[22] = tested on: Mycobacterium tuberculosis; assay: Antimycobacterial activity against MDR-Mycobacterium tuberculosis KZN494; type: functional

In the case of `Cc1ccn2c(C(=O)NCc3ccccc3)c(C)nc2c1`, the MIC99 [1] was 0.2 µM (≈ 0.0559 µg/mL).
With `Cc1ccc2nc(C)c(C(=O)NCc3cccs3)n2c1` the MIC90 [2] was 0.22 µM (≈ 0.0628 µg/mL).
Work on `CC(C)(C)OC(=O)N1CCN(c2nc(=O)c3cc(C(F)(F)F)cc([N+](=O)[O-])c3s2)CC1` yielded an MIC90 [3] of 0.28 µM (≈ 0.129 µg/mL).
Molecule `Cc1ccn2nc(C)c(C(=O)NCc3ccc(C(F)(F)F)cc3)c2c1` has an MIC90 [1] of 0.069 µM (≈ 0.024 µg/mL).
`COc1ccn2nc(C)c(C(=O)NCc3ccc(N4CCC(c5ccc(OC(F)(F)F)cc5)CC4)cc3)c2c1` gave an MIC90 [1] of 0.011 µM (≈ 0.00592 µg/mL).
Molecule `Cc1ccn2c(C(=O)N3CCN(c4nc(=O)c5cc(C(F)(F)F)cc([N+](=O)[O-])c5s4)CC3)c(C)nc2c1` has an MIC90 [3] of 2.1 µM (≈ 1.12 µg/mL).
In the case of `Cc1ccn2c(C(=O)NCc3ccc(C(=O)OCc4ccccc4)cc3)c(C)nc2c1`, the MIC90 [3] was 0.21 µM (≈ 0.0868 µg/mL).
For `Cc1ccn2c(C(=O)NCc3ccc(C(=O)N4CCN(c5nc(=O)c6cc(C(F)(F)F)cc([N+](=O)[O-])c6s5)CC4)cc3)c(C)nc2c1`, the MIC90 [3] was over 10 µM.
`Cc1nc(-c2ccc(F)cc2)sc1-c1cn2ccccc2n1` gave an MIC90 [4] of 90.2 µM (≈ 27.9 µg/mL).
With `N#Cc1cccc(Nc2cc(C(F)(F)F)ccc2-c2cnc3ccccn23)c1` the pIC50 [5] was 3.66 and the MIC90 [1] was 6.08 µM (≈ 2.3 µg/mL).
For `Cc1cn2c(C(=O)NCc3ccc(N4CCN(c5ccc(OC(F)(F)F)cc5)CC4)c(F)c3)c(C)nc2s1`, the Activity [6] was 0.3 log10CFU, the CC50 ([7]; chlorocebus sabaeus) was over 100 µM and the solubility [8] was 50 µM (≈ 27.4 µg/mL). For the same molecule, the half-life [9] was 28 min, the MIC90 [10] was 0.008 µM (≈ 0.00438 µg/mL) and the MIC90 [11] was 1.1 µM (≈ 0.602 µg/mL).
In the case of `Cc1nc(-c2ccc(F)cc2)sc1-c1cn2ccc(Br)cc2n1`, the MIC90 [4] was 53.6 µM (≈ 20.8 µg/mL).
`CCc1ccn2c(C(=O)NCc3ccc(C)cc3)c(C)nc2c1` showed an MIC90 [10] of 0.004 µM (≈ 0.00123 µg/mL).
Work on `Cc1ccc(CNC(=O)Cc2c(C)nc3ccc(C)cn23)cc1` yielded an MIC90 [1] of 1.7 µM (≈ 0.523 µg/mL).
Work on `Cc1nc(-c2ccccc2)sc1-c1cn2ccc(Br)cc2n1` yielded an MIC90 [4] of 67.5 µM (≈ 25 µg/mL).
With `Cc1ccc2nc(C)c(C(=O)NCCCC3CCCCC3)n2c1` the MIC90 [12] was 0.2 µM (≈ 0.0627 µg/mL), the selectivity ratio [13] was at least 1024 and the MIC90 [14] was 0.2 µM (≈ 0.0627 µg/mL). The selectivity ratio [15] was at least 1024, the pIC50 [7] was 3.92 and the MIC90 [2] was 0.1 µM (≈ 0.0313 µg/mL). It also gave an MIC90 [16] of 0.1 µM (≈ 0.0313 µg/mL), a selectivity ratio [17] of at least 1024 and an MIC90 [18] of 0.1 µM (≈ 0.0313 µg/mL). The selectivity ratio [19] was at least 1024, the selectivity ratio [20] was at least 1024 and the selectivity ratio [21] was at least 1024. For the same molecule, the MIC90 [22] was 0.05 µM (≈ 0.0157 µg/mL).
For `Cc1nc2ccc(Cl)cn2c1C(=O)NCCCC1CCCCC1`, the MIC90 [12] was 0.37 µM (≈ 0.124 µg/mL), the selectivity ratio [13] was at least 1024 and the MIC90 [14] was 1.5 µM (≈ 0.501 µg/mL). It also gave a selectivity ratio [15] of at least 1024, a pIC50 [7] of at most 3.72 and an MIC90 [2] of 0.19 µM (≈ 0.0634 µg/mL). The MIC90 [16] was 0.75 µM (≈ 0.25 µg/mL), the selectivity ratio [17] was at least 1024 and the MIC90 [18] was 0.37 µM (≈ 0.124 µg/mL). The selectivity ratio [19] was at least 1024, the selectivity ratio [20] was at least 1024 and the selectivity ratio [21] was at least 1024. It also gave an MIC90 [22] of 0.09 µM (≈ 0.03 µg/mL).
With `Cc1ccc(-c2nc3ccc(C)cn3c2CC(=O)N(C)C)cc1` [ZOLPIDEM] the MIC90 [10] was 10 µM (≈ 3.07 µg/mL).
